The values that follow come from paper PMC4961458 (eLife, 2016).

Where two headings read alike, the source gives them in different places.

The target in one assay is T1, GR (Homo sapiens, UniProt P04150).
T1 sequence (P04150 1-777): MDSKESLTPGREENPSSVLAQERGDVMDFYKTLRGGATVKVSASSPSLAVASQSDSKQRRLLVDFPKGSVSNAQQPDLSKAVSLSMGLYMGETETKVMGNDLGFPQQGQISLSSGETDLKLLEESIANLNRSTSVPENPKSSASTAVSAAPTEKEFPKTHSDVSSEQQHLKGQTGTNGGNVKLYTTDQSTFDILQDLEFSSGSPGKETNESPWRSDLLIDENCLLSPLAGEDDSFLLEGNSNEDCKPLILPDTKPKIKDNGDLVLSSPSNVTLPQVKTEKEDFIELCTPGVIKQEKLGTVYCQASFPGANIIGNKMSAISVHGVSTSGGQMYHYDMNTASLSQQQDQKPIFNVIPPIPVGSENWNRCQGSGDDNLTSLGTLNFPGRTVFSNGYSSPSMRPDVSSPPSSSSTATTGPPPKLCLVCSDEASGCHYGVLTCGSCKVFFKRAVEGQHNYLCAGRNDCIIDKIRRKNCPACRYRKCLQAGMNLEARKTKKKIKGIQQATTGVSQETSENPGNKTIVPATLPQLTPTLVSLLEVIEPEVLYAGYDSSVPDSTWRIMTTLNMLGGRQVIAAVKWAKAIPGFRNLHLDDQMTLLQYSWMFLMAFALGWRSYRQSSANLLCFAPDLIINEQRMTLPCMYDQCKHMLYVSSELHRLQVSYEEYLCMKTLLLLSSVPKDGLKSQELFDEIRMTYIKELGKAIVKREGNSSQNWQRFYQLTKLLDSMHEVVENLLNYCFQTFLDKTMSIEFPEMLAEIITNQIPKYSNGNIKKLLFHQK
As to the kind of experiment: GR competitive radioligand binding assay. As for the experimental part:
Reactions were conducted in 96-well plates in TEGM (10 mM Tris-HCl pH 7.2, 1 mM EDTA, 10% glycerol, 1 mM β-mercaptoethanol, 10 mM sodium molybdate). […] All reactions were set up in duplicates and incubated at 4°C overnight. Receptor-bound ^3H-DEX was isolated by ultrafiltration using a Unifilter-96 GF/C filter plate (Perkin Elmer), eluted in 30 µL Microscint-20 and quantified using a scintillation counter (Top Count).

Another assay deals with T2, MR (Homo sapiens, UniProt P08235).
T2 construct: expressed in transfected cells; host or cells: HEPG2
T2 sequence (P08235 1-984): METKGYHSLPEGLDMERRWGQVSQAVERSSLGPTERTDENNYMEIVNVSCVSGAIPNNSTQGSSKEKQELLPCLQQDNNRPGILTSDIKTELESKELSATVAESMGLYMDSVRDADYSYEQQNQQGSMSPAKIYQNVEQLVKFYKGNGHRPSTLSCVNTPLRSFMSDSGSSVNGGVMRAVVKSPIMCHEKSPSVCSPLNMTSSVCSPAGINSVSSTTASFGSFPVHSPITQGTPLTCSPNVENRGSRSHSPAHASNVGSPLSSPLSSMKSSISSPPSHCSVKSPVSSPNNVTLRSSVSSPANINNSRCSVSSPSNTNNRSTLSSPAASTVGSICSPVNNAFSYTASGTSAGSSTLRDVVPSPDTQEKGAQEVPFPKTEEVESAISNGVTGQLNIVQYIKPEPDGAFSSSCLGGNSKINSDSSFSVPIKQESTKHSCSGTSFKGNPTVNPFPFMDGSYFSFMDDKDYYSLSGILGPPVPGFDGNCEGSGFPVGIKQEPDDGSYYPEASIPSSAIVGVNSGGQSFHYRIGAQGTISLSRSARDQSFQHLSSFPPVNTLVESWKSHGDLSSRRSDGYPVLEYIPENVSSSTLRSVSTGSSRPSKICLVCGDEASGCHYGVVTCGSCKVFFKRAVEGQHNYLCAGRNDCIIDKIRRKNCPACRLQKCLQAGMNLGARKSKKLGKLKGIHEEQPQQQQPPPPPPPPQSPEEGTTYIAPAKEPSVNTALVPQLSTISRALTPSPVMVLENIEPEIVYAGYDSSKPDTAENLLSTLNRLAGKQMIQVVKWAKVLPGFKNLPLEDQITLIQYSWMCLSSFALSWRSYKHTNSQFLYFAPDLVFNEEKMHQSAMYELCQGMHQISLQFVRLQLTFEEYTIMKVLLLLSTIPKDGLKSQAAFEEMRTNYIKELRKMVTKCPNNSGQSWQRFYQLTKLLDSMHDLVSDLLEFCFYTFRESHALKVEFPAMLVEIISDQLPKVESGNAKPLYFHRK
Put plainly: MR transcriptional reporter assay, agonist mode (HEPG2 cells). Type of assay: cell-based. To be noted: % of maximal aldosterone-stimulated activity. As to the method:
Transcriptional assays were performed by seeding 100 μL of cells at a density of 250,000 cells/mL into 96-well cell culture plates in RPMI 1640 supplemented with 5% charcoal-stripped serum and allowed to attach overnight. […] Triplicate transfections were performed using 418 ng reporter vector (2X PRE-Luciferase for PR-A and PR-B, MMTV-Luciferase for MR), 50 ng CMVpRL (normalization vector), 10 ng NHR expression vector (CMX-PR-A, pCDNA-PR-B or 6R-MR), and 0.7 μL lipofectin. […] The final agonist concentration used in the antagonist assays was 1 nM. Following 24 hr incubation, the medium was removed and the cells were lysed in 40 μL of lysis buffer (25 mM Tris Phosphate, 2 mM CDTA, 10% Glycerol, 0.5% Triton X-100, 2 mM DTT). Firefly luciferase activity was measured immediately following the addition of 40 μL luciferase buffer (20 mM tricine, 0.1 mM EDTA, 1.07 mM (MgCO3)4 Mg(OH)2· 5H2O, 2.67 mM MgSO4, 33.3 mM DTT, 270 μM Coenzyme A, 470 μM luciferin, 530 μM ATP).
On the technique in general: In a reporter assay the amount or activity of a reporter protein is the signal.

In general, IC50 refers to the concentration needed to halve the response being measured. The Emax is the maximal effect, on the per cent scale that the assay sets. With `CC/C(=C(\c1ccc(O)cc1)c1ccc(OCCN(C)C)cc1)c1ccccc1` [4-OH Tam, 4-hydroxytamoxifen], at GR (3.0 nM 3H-dexamethasone, read-out: GR IC50), the IC50 is > 1800 nM. Also, the Emax on MR worked out at 0%.
Consider `CC/C(=C(/c1ccc(/C=C/C(=O)O)cc1)c1ccc2[nH]ncc2c1)c1ccc(F)cc1Cl` [GDC-0810], for which the Emax on MR came to 0.09 ± 0.16%.
In turn, `C[C@]12CC[C@@H]3c4ccc(O)cc4C[C@@H](CCCCCCCCC[S+]([O-])CCCC(F)(F)C(F)(F)F)[C@H]3[C@@H]1CC[C@@H]2O` (stereo partly shown) [Fulvestrant] registered an IC50 at GR of 817 nM.
